This assay deals with MAPK14 (human) (UniProt Q16539). Briefly: Inhibition of MAPK14 Kinase Activity.
Sequence of MAPK14 (human) (Q16539 whole entry, looked up): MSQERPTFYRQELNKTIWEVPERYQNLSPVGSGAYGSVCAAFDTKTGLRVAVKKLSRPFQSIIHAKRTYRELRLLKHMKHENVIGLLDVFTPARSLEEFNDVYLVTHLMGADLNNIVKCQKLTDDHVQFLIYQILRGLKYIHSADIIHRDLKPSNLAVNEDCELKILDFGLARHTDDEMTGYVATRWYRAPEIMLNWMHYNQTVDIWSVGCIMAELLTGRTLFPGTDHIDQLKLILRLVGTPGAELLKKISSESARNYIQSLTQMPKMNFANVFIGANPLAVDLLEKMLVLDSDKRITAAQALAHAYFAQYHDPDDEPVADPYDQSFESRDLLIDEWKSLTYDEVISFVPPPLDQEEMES
Regarding `Cc1cc(F)ccc1-c1nc(O)nc2c1ccc(=O)n2-c1c(F)cccc1F`, the IC50 is less than 10 µM.
In turn, `CCNC(=O)CNc1nc(-c2ccc(F)cc2C)c2ccc(=O)n(-c3c(F)cccc3F)c2n1` displayed an IC50 of less than 10 µM.
`Cc1cc(F)ccc1-c1nc(NC2CCCCC2)nc2c1ccc(=O)n2-c1ccccc1C` returned an IC50 of less than 10 µM.
The molecule `Cc1cc(F)ccc1-c1nc(NCC(=O)N2CCNC(=O)C2)nc2c1ccc(=O)n2-c1c(F)cccc1F` returned an IC50 of less than 10 µM.
With `CS(=O)(=O)c1nc(-c2ccccc2)c2ccc(=O)n(-c3ccccc3)c2n1`, the IC50 was less than 10 µM.
Then `Cc1cc(F)ccc1-c1nc(NCCCl)nc2c1ccc(=O)n2-c1c(F)cccc1F`, with less than 10 µM; and `COc1nc(-c2ccc(F)cc2C)c2ccc(=O)n(-c3c(F)cccc3F)c2n1`, with less than 10 µM; and `CSc1nc(-c2ccccc2F)c2ccc(=O)n(-c3ccccc3Cl)c2n1`, with less than 10 µM.
Molecule `Cc1cc(F)ccc1-c1nc(N(C)S(C)(=O)=O)nc2c1ccc(=O)n2C(C)C` registered an IC50 of less than 10 µM.
With `Cc1cc(F)ccc1-c1nc(NCCNC(=O)Nc2cccc(F)c2)nc2c1ccc(=O)n2-c1c(F)cccc1F`, the 50% inhibitory concentration (IC50) is less than 10 µM.
Take `O=c1ccc2c(-c3ccccc3Cl)nc(OCCO)nc2n1-c1ccccc1Cl`: the IC50 is less than 10 µM.
Then `CS(=O)(=O)Nc1nc(-c2ccccc2F)c2ccc(=O)n(-c3c(F)cccc3F)c2n1`, with less than 10 µM; and `Cc1cc(F)ccc1-c1nc(NC(C)(CO)CO)nc2c1ccc(=O)n2-c1ccccc1F`, with less than 10 µM.
For `Cc1cc(F)ccc1-c1nc(NC[C@@H](C)O)nc2c1ccc(=O)n2-c1ccccc1F`, the IC50 is less than 10 µM.
Then `Cc1cc(F)ccc1-c1nc(NCC(=O)O)nc2c1ccc(=O)n2-c1c(F)cccc1F`, with less than 10 µM; and `Cc1cc(F)ccc1-c1nc(O)nc2c1ccc(=O)n2-c1ccccc1F`, with less than 10 µM.
The molecule `CSc1nc(NC2CCCCC2)c(C=O)c(-c2ccc(F)cc2C)n1` came in with a half-inhibitory concentration (IC50) of less than 10 µM.
Turning to `CSc1nc(-c2ccc(F)cc2C)c2ccc(=O)n(C3CC3)c2n1`, the IC50 is less than 10 µM.
`Cc1nnc(CNc2nc(-c3ccc(F)cc3C)c3ccc(=O)n(-c4c(F)cccc4F)c3n2)[nH]1` registered a concentration for half-maximal inhibition (IC50) of less than 10 µM.
Then `Cc1cc(F)ccc1-c1nc(NS(C)(=O)=O)nc2c1ccc(=O)n2-c1c(F)cccc1F`, with less than 10 µM; and `CNC(=O)NCCNc1nc(-c2ccc(F)cc2C)c2ccc(=O)n(-c3c(F)cccc3F)c2n1`, with less than 10 µM; and `O=c1ccc2c(-c3ccccc3F)nc(NC(CO)CO)nc2n1CC1CC1`, with less than 10 µM.
As for `NCCNc1nc(-c2ccccc2Cl)c2ccc(=O)n(-c3ccccc3Cl)c2n1`, the figure is less than 10 µM.
Then `CCC(CC)n1c(=O)ccc2c(-c3ccccc3Cl)nc(NCCN)nc21`, with less than 10 µM; and `Cc1cc(F)ccc1-c1nc(NC2CCC(O)CC2)nc2c1ccc(=O)n2-c1ccccc1F` (configuration not stated), with less than 10 µM.
`CS(=O)(=O)c1nc(-c2ccccc2Cl)c2ccc(=O)n(-c3ccccc3Cl)c2n1` came in with an IC50 of less than 10 µM.
In turn, `Cc1cc(F)ccc1-c1nc(NC(=O)C2CC2)nc2c1ccc(=O)n2-c1c(F)cccc1F` returned an IC50 of less than 10 µM.
In turn, `Cc1cc(F)ccc1-c1nc(N[C@@H](C)CO)nc2c1ccc(=O)n2-c1ccccc1C` came in with an IC50 of less than 10 µM.
`Cc1cc(F)ccc1-c1nc(N[C@H]2CCC[C@@H]2O)nc2c1ccc(=O)n2-c1c(F)cccc1F` showed a half-inhibitory concentration (IC50) of less than 10 µM.
Regarding `Cc1cc(F)ccc1-c1nc(NCC(=O)N2CC(O)C2)nc2c1ccc(=O)n2-c1c(F)cccc1F`, the IC50 is less than 10 µM.
`Cc1cc(F)ccc1-c1nc(NCC(=O)N2CCOCC2)nc2c1ccc(=O)n2-c1c(F)cccc1F` gave a half-maximal inhibitory concentration (IC50) of less than 10 µM.
`Cc1cc(F)ccc1-c1nc(N(C)S(C)(=O)=O)nc2c1ccc(=O)n2-c1c(F)cccc1F` registered a half-inhibitory concentration (IC50) of less than 10 µM.
As for `Cc1cc(F)ccc1-c1nc(NC2CCCCC2)nc2c1ccc(=O)n2-c1ccccc1F`, the IC50 is less than 10 µM.
In the case of `Cc1cc(F)ccc1-c1nc(NC(CO)(CO)CO)nc2c1ccc(=O)n2-c1c(F)cccc1F`, the half-maximal inhibitory concentration (IC50) is less than 10 µM.
As for `CCOc1nc(-c2ccc(F)cc2C)c2ccc(=O)n(-c3c(F)cccc3F)c2n1`, the figure is less than 10 µM; as for `Cc1cc(F)ccc1-c1nc(NCCNC(=O)c2ccccc2)nc2c1ccc(=O)n2-c1c(F)cccc1F`, less than 10 µM.
Turning to `Cc1cc(F)ccc1-c1nc(NC(CO)CO)nc2c1ccc(=O)n2CC1CC1`, the IC50 was less than 10 µM.
As for `Cc1cc(F)ccc1-c1nc(NCC(C)(C)O)nc2c1ccc(=O)n2-c1ccccc1C`, the IC50 is less than 10 µM.
Consider `Cc1cc(F)ccc1-c1nc(NCC2CCS(=O)(=O)C2)nc2c1ccc(=O)n2-c1c(F)cccc1F` (configuration not stated), for which the concentration for half-maximal inhibition (IC50) is less than 10 µM.
As to `CSc1nc(-c2ccccc2Cl)c2ccc(=O)n(-c3ccccc3Cl)c2n1`, the IC50 was less than 10 µM.
`Cc1cc(F)ccc1-c1nc(NCC(F)(F)F)nc2c1ccc(=O)n2-c1ccccc1C`: the IC50 was less than 10 µM.
As for `CCCCOc1nc(-c2ccc(F)cc2C)c2ccc(=O)n(-c3c(F)cccc3F)c2n1`, the figure is less than 10 µM.
Regarding `CCC(CC)n1c(=O)ccc2c(-c3ccccc3Cl)nc(NC(CO)CO)nc21`, the half-inhibitory concentration (IC50) was less than 10 µM.
Then `Cc1cc(F)ccc1-c1nc(NCC(=O)N(C)C)nc2c1ccc(=O)n2-c1c(F)cccc1F`, with less than 10 µM.
For `Cc1cc(F)ccc1-c1nc(NCCC(=N)NO)nc2c1ccc(=O)n2-c1c(F)cccc1F`, the half-maximal inhibitory concentration (IC50) was less than 10 µM.
As for `Cc1cc(F)ccc1-c1nc(NC(C)(C)CO)nc2c1ccc(=O)n2-c1ccccc1F`, the figure is less than 10 µM; as for `Cc1cc(F)ccc1-c1nc(NC[C@@H](C)O)nc2c1ccc(=O)n2C1CCCCC1`, less than 10 µM; as for `CCC(C)n1c(=O)ccc2c(-c3ccccc3F)nc(SC)nc21` (configuration not stated), less than 10 µM.
As for `Cc1cc(F)ccc1-c1nc(NCC2CCCO2)nc2c1ccc(=O)n2-c1c(F)cccc1F` (configuration not stated), the figure is less than 10 µM; as for `Cc1cc(F)ccc1-c1nc(NC(CO)CO)nc2c1ccc(=O)n2C(C)C`, less than 10 µM; as for `CSCCCOc1nc(-c2ccc(F)cc2C)c2ccc(=O)n(-c3c(F)cccc3F)c2n1`, less than 10 µM.
Turning to `COc1nc(-c2ccccc2F)c2ccc(=O)n(-c3c(F)cccc3F)c2n1`, the IC50 is less than 10 µM.
`Cc1cc(F)ccc1-c1nc(NCCCS(C)(=O)=O)nc2c1ccc(=O)n2-c1c(F)cccc1F` gave an IC50 of less than 10 µM.
Regarding `Cc1cc(F)ccc1-c1nc(Nc2nnn[nH]2)nc2c1ccc(=O)n2-c1c(F)cccc1F`, the half-inhibitory concentration (IC50) is less than 10 µM.
For the molecule `Cc1cc(F)ccc1-c1nc(N(C(=O)C2CC2)C(=O)C2CC2)nc2c1ccc(=O)n2-c1c(F)cccc1F`, the IC50 was less than 10 µM.
As for `Nc1nc(-c2ccccc2F)c2ccc(=O)n(-c3c(F)cccc3F)c2n1`, the figure is less than 10 µM.
`Cc1cc(F)ccc1-c1nc(NC(C)(C)CO)nc2c1ccc(=O)n2-c1c(F)cccc1F` had a concentration for half-maximal inhibition (IC50) of less than 10 µM.
On to `CCOC(=O)CNc1nc(-c2ccccc2Cl)c2ccc(=O)n(C(CC)CC)c2n1`, for which the half-inhibitory concentration (IC50) is less than 10 µM.
On to `CCOC(=O)NCCNc1nc(-c2ccc(F)cc2C)c2ccc(=O)n(-c3c(F)cccc3F)c2n1`, for which the half-maximal inhibitory concentration (IC50) is less than 10 µM.
Take `Cc1cc(F)ccc1-c1nc(OCCNS(C)(=O)=O)nc2c1ccc(=O)n2-c1c(F)cccc1F`: the concentration for half-maximal inhibition (IC50) was less than 10 µM.
Then `Cc1cc(F)ccc1-c1nc(NCCN)nc2c1ccc(=O)n2-c1c(F)cccc1F`, with less than 10 µM; and `Cc1cc(F)ccc1-c1nc(N2CCOCC2)nc2c1ccc(=O)n2-c1ccccc1C`, with less than 10 µM; and `CCC(C)n1c(=O)ccc2c(-c3ccc(F)cc3C)nc(SC)nc21` (configuration not stated), with less than 10 µM.
The molecule `CCNC(=O)NCCNc1nc(-c2ccc(F)cc2C)c2ccc(=O)n(-c3c(F)cccc3F)c2n1` returned an IC50 of less than 10 µM.
As for `Cc1cc(F)ccc1-c1nc(NC2CCOCC2)nc2c1ccc(=O)n2-c1ccccc1C`, the figure is less than 10 µM.
On to `Cc1cc(F)ccc1-c1nc(NCC(=O)NCCO)nc2c1ccc(=O)n2-c1c(F)cccc1F`, for which the half-inhibitory concentration (IC50) is less than 10 µM.
`CCn1c(=O)ccc2c(-c3ccccc3F)nc(SC)nc21` displayed a concentration for half-maximal inhibition (IC50) of less than 10 µM.
As for `Cc1cc(F)ccc1-c1nc(N[C@@H]2CS(=O)(=O)C[C@H]2O)nc2c1ccc(=O)n2-c1c(F)cccc1F`, the figure is less than 10 µM; as for `Cc1cc(F)ccc1-c1nc(NCCNC(=O)OC(C)(C)C)nc2c1ccc(=O)n2-c1c(F)cccc1F`, less than 10 µM.
Consider `Cc1cc(F)ccc1-c1nc(NCCO)nc2c1ccc(=O)n2C(C)C`, for which the concentration for half-maximal inhibition (IC50) is less than 10 µM.
`Cc1cc(F)ccc1-c1nc(N[C@H](C)CO)nc2c1ccc(=O)n2-c1c(F)cccc1F` displayed a concentration for half-maximal inhibition (IC50) of less than 10 µM.
For `Cc1cc(F)ccc1-c1nc(NCC(C)(C)O)nc2c1ccc(=O)n2-c1c(F)cccc1F`, the 50% inhibitory concentration (IC50) was less than 10 µM.
`Cc1cc(CNc2nc(-c3ccc(F)cc3C)c3ccc(=O)n(-c4c(F)cccc4F)c3n2)on1` had a concentration for half-maximal inhibition (IC50) of less than 10 µM.
The molecule `CC(C)n1c(=O)ccc2c(-c3ccccc3F)nc(NC(CO)CO)nc21` yielded an IC50 of less than 10 µM.
With `O=c1ccc2c(-c3ccccc3F)nc(NC(CO)CO)nc2n1-c1ccccc1F`, the 50% inhibitory concentration (IC50) was less than 10 µM.
In turn, `Cc1cc(F)ccc1-c1nc(NCCc2noc(=O)[nH]2)nc2c1ccc(=O)n2-c1c(F)cccc1F` came in with an IC50 of less than 10 µM.
Molecule `CN(C)CCNc1nc(-c2ccccc2Cl)c2ccc(=O)n(-c3ccccc3Cl)c2n1` displayed an IC50 of less than 10 µM.
On to `Cc1cc(F)ccc1-c1nc(Nc2nc[nH]n2)nc2c1ccc(=O)n2-c1c(F)cccc1F`, for which the IC50 is less than 10 µM.
Turning to `CC(C)n1c(=O)ccc2c(-c3ccccc3F)nc(NS(C)(=O)=O)nc21`, the IC50 is less than 10 µM.
As for `CC(CO)(CO)Nc1nc(-c2ccccc2Cl)c2ccc(=O)n(-c3ccccc3Cl)c2n1`, the figure is less than 10 µM.
As for `CC(=O)NCCOc1nc(-c2ccc(F)cc2C)c2ccc(=O)n(-c3c(F)cccc3F)c2n1`, the concentration for half-maximal inhibition (IC50) is less than 10 µM.
Molecule `Cc1cc(F)ccc1-c1nc(NC[C@H](C)O)nc2c1ccc(=O)n2-c1c(F)cccc1F` yielded an IC50 of less than 10 µM.
Then `Cc1cc(F)ccc1-c1nc(NCCNS(C)(=O)=O)nc2c1ccc(=O)n2-c1c(F)cccc1F`, with less than 10 µM.
On to `COc1nc(-c2ccccc2Cl)c2ccc(=O)n(-c3ccccc3Cl)c2n1`, for which the IC50 is less than 10 µM.
In turn, `Cc1cc(F)ccc1-c1nc(S(C)(=O)=O)nc2c1ccc(=O)n2-c1ccccc1C` came in with an IC50 of less than 10 µM.
Take `CSc1nc(-c2ccccc2F)c2ccc(=O)n(CC3CC3)c2n1`: the half-maximal inhibitory concentration (IC50) was less than 10 µM.
In turn, `CCC(CC)n1c(=O)ccc2c(-c3ccccc3Cl)nc(NCCO)nc21` returned an IC50 of less than 10 µM.

For the origin of these results see the Kinase Knowledgebase extract (Sharma et al. 2016).
